This passage reports MIC and MIC90 results from ChEMBL document CHEMBL3352501, “SAR analysis of new anti-TB drugs currently in pre-clinical and clinical development” (Eur J Med Chem, 2014).

Assay [1] has as its system Mycobacterium tuberculosis. In words: Antitubercular activity against drug-resistant Mycobacterium tuberculosis clinical isolates assessed as growth inhibition. The format is functional.
For assay [2], the system named is Mycobacterium tuberculosis. Kind of assay: Antitubercular activity against multidrug-resistant Mycobacterium tuberculosis clinical isolates assessed as growth inhibition. In kind it is functional.

Values after ≈ are worked out from the molar mass of the structure shown. Bounds are passed on as bounds.

In the case of `COc1ncccc1Nc1cc2nc3ccccc3n(-c3ccc(OC(F)(F)F)cc3)c-2c/c1=N\C1CCC(OC)CC1` (stereo not given), the MIC – broadly, the lowest concentration that inhibits growth of the organism – in assay [1] turned out to be 0.027 µg/mL (≈ 0.0458 µM).

Turning to `CC(C)/N=c1\cc2n(-c3ccc(Cl)cc3)c3ccccc3nc-2cc1Nc1ccc(Cl)cc1` [CLOFAZIMINE], in assay [1], the MIC was 0.108 µg/mL (≈ 0.228 µM).

`CCc1nc2ccc(Cl)cn2c1C(=O)NCc1ccc(N2CCC(c3ccc(OC(F)(F)F)cc3)CC2)cc1` [TELACEBEC]: the MIC90 (in general, the lowest concentration that inhibits either 90% of growth or 90% of the strains tested, depending on the study) in assay [2] is less than 0.43 nM.

For `CC(C)=CCC/C(C)=C/CNCCNC1C2CC3CC(C2)CC1C3` (stereo not given) [SQ109], the MIC in assay [1] came out at 0.2 µg/mL (≈ 0.605 µM).

For `COc1nc2ccc(Br)cc2cc1[C@@H](c1ccccc1)[C@@](O)(CCN(C)C)c1cccc2ccccc12` [BEDAQUILINE], in assay [1], the MIC was 0.002 µg/mL (≈ 0.0036 µM).
